From patent publication US20190211072A1, “TRI-AGONIST FOR THE GLu, GLP-1 AND NPY2 RECEPTORS” (Syracuse University, priority 2018, published 2019)
Values belong to the molecule of their own block, whether it stands above or below them.

What was measured:
human NPY2R = molecular target: T1, human NPY2R (Homo sapiens, UniProt P49146); experiment: cAMP-lowering action in HEK293-H188-C24 cells transfected with NPY2R (adenosine or forskolin pre-stimulation); assay type: cell-based; conditions: BIIE0246 2 μM; adenosine 2 μM
T1 construct: expressed in transfected cells; host or cells: HEK293-H188-C24 cells
T1 sequence (P49146 1-381): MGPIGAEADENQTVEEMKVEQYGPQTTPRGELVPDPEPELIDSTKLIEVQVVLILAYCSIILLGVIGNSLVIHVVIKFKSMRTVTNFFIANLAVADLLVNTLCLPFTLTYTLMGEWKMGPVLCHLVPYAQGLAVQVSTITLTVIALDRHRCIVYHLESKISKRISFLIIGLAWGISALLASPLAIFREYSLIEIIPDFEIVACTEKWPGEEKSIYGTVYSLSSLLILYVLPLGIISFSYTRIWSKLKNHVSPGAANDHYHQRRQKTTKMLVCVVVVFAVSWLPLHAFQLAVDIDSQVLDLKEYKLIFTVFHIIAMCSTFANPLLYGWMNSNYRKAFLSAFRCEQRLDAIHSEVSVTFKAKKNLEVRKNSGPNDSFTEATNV

GLP-1R = molecular target: T2, GLP-1R (Homo sapiens, UniProt P43220); experiment: LY2409021 block of GGP817 action in HEK293-GLP-1R cells transduced with H188; assay type: cell-based
T2 construct: expressed in transfected cells; host or cells: HEK293-GLP-1R cells transduced with the H188 cAMP FRET reporter
From the text: (§1) It is increasingly evident that hybrid peptides have the capacity to stimulate multiple GPCRs that participate in metabolic homeostasis.
(§2) This was established by monitoring its ability to stimulate a 60% maximal ΔFRET in the cAMP assay.

GluR = GluR (UniProt P30082); experiment: LY2409021 block of GGP817 action in HEK293-GluR cells transduced with H188; assay type: cell-based; conditions: read-out: IC50, block of GGP817 agonist action at the GluR, GGP817 300 nM
From the text: as §1, §2

[1] = molecular target: T3, human neuropeptide Y2 receptor (NPY2R) (human, UniProt P49146); experiment: cell-based or functional assay
T3 sequence: T1 sequence (P49146 1-381)

T2 sequence (P43220 24-463, species assumed): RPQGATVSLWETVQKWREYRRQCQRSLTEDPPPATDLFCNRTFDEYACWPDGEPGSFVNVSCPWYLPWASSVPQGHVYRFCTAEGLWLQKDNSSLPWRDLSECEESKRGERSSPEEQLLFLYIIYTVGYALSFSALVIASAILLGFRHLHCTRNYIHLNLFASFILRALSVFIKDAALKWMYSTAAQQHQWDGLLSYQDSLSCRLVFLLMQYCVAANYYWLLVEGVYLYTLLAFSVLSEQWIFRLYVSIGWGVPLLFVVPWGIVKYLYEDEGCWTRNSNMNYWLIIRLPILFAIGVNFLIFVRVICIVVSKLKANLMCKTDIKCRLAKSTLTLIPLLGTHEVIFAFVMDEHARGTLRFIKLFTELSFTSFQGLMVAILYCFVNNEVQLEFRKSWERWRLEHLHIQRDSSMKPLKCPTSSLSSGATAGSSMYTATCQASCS

effect of antagonist on the cAMP-lowering action of GGP817 (human NPY2R): blocked
Molecule: N=C(N)NCCC[C@H](NC(=O)CC1(CC(=O)N2CCN(C3c4ccccc4NC(=O)c4ccccc43)CC2)CCCC1)C(=O)NCCn1c(=O)n(-c2ccccc2)n(-c2ccccc2)c1=O (stereo partly shown) [BIIE0246]

IC50 (GLP-1R): 1600 nM
IC50 (GluR): 908 nM
Molecule: Cc1cc(O[C@@H](CCC(F)(F)F)c2ccc(C(=O)NCCC(=O)O)cc2)cc(C)c1-c1ccc(C(C)(C)C)cc1 [LY2409021]

EC50 of NPY2 receptor agonism (H188 FRET) [1]: ~3 µM
Molecule: HSQGTFTSDYSKYLDSRRAQDFVQWLMNTRHYLNLVTRQRY (C-terminal amide (-NH2)) [GGP817]
